These results are taken from patent US8697689B2, “Indole and benzomorpholine derivatives as modulators of metabotropic glutamate receptors” (Janssen Pharmaceuticals, Inc., priority 2008, dated 2014).

The structures appear in SMILES notation.

The target in one data set is T1, human mGluR2 receptor (Homo sapiens, UniProt Q14416).
T1 construct: expressed in transfected cells; host or cells: CHO cells
As to the kind of experiment: [35S]GTPγS binding assay (PAM assay) using membranes from CHO cells transfected with the human mGluR2 receptor. Format: biochemical. Particulars: in presence of mGluR2 agonist glutamate at a predetermined EC25 concentration; averages of duplicate values of 11-concentration response curves; error about 0.3 log-units; read-out: GTPgS-hR2 PAM pEC50 (converted). The text has this:
The compounds provided in the present invention are positive allosteric modulators of mGluR2. These compounds appear to potentiate glutamate responses by binding to an allosteric site other than the glutamate binding site. The response of mGluR2 to a concentration of glutamate is increased when compounds of Formula (I) are present. Compounds of Formula (I) are expected to have their effect substantially at mGluR2 by virtue of their ability to enhance the function of the receptor. The behaviour of positive allosteric modulators tested at mGluR2 using the [^35S]GTPγS binding assay method described below and which is suitable for the identification of such compounds, and more particularly the compounds according to Formula (I), are shown in Table 4.
The [^35S]GTPγS binding assay is a functional membrane-based assay used to study G-protein coupled receptor (GPCR) function whereby incorporation of a non-hydrolysable form of GTP, [^35S]GTPγS (guanosine 5′-triphosphate, labelled with […] ^35S), is measured. The G-protein α subunit catalyzes the exchange of guanosine 5′-diphosphate (GDP) by guanosine triphosphate (GTP) and on activation of the GPCR by an agonist, [^35S]GTPγS, becomes incorporated and cannot be cleaved to continue the exchange cycle (Harper (1998) Current Protocols in Pharmacology 2.6.1-10, John Wiley & Sons, Inc.). […] Here we describe the use of the [^35S]GTPγS binding assay using membranes from cells transfected with the human mGluR2 receptor and adapted from Schaffhauser et al ((2003) Molecular Pharmacology 4:798-810) for the detection of the positive allosteric modulation (PAM) properties of the compounds of this invention.
CHO-cells were cultured to pre-confluence and stimulated with 5 mM butyrate for 24 hours, prior to washing in PBS (phosphate-buffered saline), and then collection by scraping in homogenisation buffer (50 mM Tris-HCl buffer, pH 7.4, 4° C.). Cell lysates were homogenized briefly (15 s) using an ultra-turrax homogenizer. The homogenate was centrifuged at 23 500×g for 10 min. and the supernatant discarded. The pellet was resuspended in 5 mM Tris-HCl, pH 7.4 and centrifuged again (30 000×g, 20 min., 4° C.). The final pellet was resuspended in 50 mM HEPES, pH 7.4 and stored at −80° C. in appropriate aliquots before use. Protein concentration was determined by the Bradford method (Bio-Rad, USA) with bovine serum albumin as standard.
Measurement of mGluR2 positive allosteric modulatory activity of test compounds in membranes containing human mGluR2 was performed using frozen membranes that were thawed and briefly homogenised prior to pre-incubation in 96-well microplates (15 μg/assay well, 30 minutes, 30° C.) in assay buffer (50 mM HEPES pH 7.4, 100 mM NaCl, 3 mM MgCl2, 50 μM GDP, 10 μg/ml saponin) with increasing concentrations of positive allosteric modulator (from 0.3 nM to 50 μM) and either a minimal pre-determined concentration of glutamate (PAM assay), or no added glutamate. For the PAM assay, membranes were pre-incubated with glutamate at EC25 concentration, i.e. a concentration that gives 25% of the maximal response glutamate, and is in accordance to published data (Pin et al. (1999) Eur. J. Pharmacol. 375:277-294). After addition of [^35S]GTPγS (0.1 nM, f.c.) to achieve a total reaction volume of 200 μl, microplates were shaken briefly and further incubated to allow [^35S]GTPγS incorporation on activation (30 minutes, 30° C.). The reaction was stopped by rapid vacuum filtration over glass-fibre filter plates (Unifilter 96-well GF/B filter plates, Perkin-Elmer, Downers Grove, USA) microplate using a 96-well plate cell harvester (Filtermate, Perkin-Elmer, USA), and then by washing three times with 300 μl of ice-cold wash buffer (Na2PO4.2H2O 10 mM, NaH2PO4.H2O 10 mM, pH=7.4). […]
For orientation: GTPγS is a poorly hydrolysed GTP analogue; its binding reports G protein activation.

Usually melting point stands for the temperature, or range, at which the solid turns liquid.

T1 sequence (Q14416 19-872): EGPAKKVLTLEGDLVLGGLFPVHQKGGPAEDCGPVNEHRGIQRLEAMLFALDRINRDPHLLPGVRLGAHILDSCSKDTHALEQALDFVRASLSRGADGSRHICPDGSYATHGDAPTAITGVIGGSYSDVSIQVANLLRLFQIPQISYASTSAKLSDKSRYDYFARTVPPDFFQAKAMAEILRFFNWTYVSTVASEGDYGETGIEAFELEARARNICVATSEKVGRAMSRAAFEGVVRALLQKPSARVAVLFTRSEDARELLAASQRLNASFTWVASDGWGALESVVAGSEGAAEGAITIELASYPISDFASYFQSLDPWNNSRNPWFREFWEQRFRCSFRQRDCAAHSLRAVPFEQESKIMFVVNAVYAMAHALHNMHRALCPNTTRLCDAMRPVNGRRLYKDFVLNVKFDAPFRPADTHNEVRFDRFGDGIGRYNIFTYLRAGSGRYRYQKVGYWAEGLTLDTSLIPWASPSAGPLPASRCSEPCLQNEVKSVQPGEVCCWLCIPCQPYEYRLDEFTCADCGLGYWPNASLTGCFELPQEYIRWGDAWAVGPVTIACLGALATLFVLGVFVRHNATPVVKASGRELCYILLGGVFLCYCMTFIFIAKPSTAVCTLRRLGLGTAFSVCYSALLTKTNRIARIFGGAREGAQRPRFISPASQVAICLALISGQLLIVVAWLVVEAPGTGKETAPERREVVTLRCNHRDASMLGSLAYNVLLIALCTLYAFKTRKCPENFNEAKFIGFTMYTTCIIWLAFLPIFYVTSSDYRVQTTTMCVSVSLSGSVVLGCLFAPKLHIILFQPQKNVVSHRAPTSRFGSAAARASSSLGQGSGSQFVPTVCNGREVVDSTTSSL

For the compound `CCCCn1ccc(-c2ccc3c(ccn3[C@H]3CC[C@@](C)(O)CC3)c2)c(Cl)c1=O` [Compound 6, cis-1-Butyl-3-chloro-4-[1-(4-hydroxy-4-methyl-cyclohexyl)-1H-indol-5-yl]-1H-pyridin-2-one], the EC50 on human mGluR2 receptor was 302 nM.
In turn, `CC(C)CCn1ccc(-c2ccc3c(ccn3[C@H]3CC[C@H](O)CC3)c2)c(Cl)c1=O` [Compound 7, trans-3-Chloro-4-[1-(4-hydroxy-cyclohexyl)-1H-indol-5-yl]-1-(3-methyl-butyl)-1H-pyridin-2-one] registered a melting point of 182.3 °C. Further, the EC50 at human mGluR2 receptor is 89.1 nM.
With `CCCCn1ccc(-c2ccc3c(ccn3[C@H]3CC[C@](C)(O)CC3)c2)c(Cl)c1=O` [Compound 5, trans-1-Butyl-3-chloro-4-[1-(4-hydroxy-4-methyl-cyclohexyl)-1H-indol-5-yl]-1H-pyridin-2-one], the EC50 at human mGluR2 receptor was 75.9 nM.
The same measure, in the same setting: the result for `CCCCn1ccc(-c2ccc3c(c2)OCCN3C2CCOCC2)c(Cl)c1=O` [Compound 1, 1-Butyl-3-chloro-4-[4-(tetrahydro-pyran-4-yl)-3,4-dihydro-2H-benzo[1,4]oxazin-7-yl]-1H-pyridin-2-one] reads 589 nM.
On the same count and under the same terms, under `CCCCn1ccc(-c2ccc3c(ccn3[C@H]3CC[C@@H](O)CC3)c2)c(Cl)c1=O` [Compound 4, cis-1-Butyl-3-chloro-4-[1-(4-hydroxy-cyclohexyl)-1H-indol-5-yl]-1H-pyridin-2-one] stands 148 nM.
`O=c1c(Cl)c(-c2ccc3c(ccn3[C@H]3CC[C@H](O)CC3)c2)ccn1CC1CC1` [Compound 8, trans-3-Chloro-1-cyclopropylmethyl-4-[1-(4-hydroxy-cyclohexyl)-1H-indol-5-yl]-1H-pyridin-2-one] registered a melting point of 209.4 °C. Moreover, the EC50 at human mGluR2 receptor is 302 nM.
In the case of `CCCCn1ccc(-c2ccc3c(ccn3C3CCOCC3)c2)c(Cl)c1=O` [Compound 9, 1-Butyl-3-chloro-4-[1-(tetrahydro-pyran-4-yl)-1H-indol-5-yl]-1H-pyridin-2-one], the EC50 on human mGluR2 receptor was 309 nM.
Still for that read-out and setting: the result for `CCCCn1ccc(-c2ccc3c(ccn3[C@H]3CC[C@H](O)CC3)c2)c(Cl)c1=O` [Compound 3, trans-1-Butyl-3-chloro-4-[1-(4-hydroxy-cyclohexyl)-1H-indol-5-yl]-1H-pyridin-2-one] reads 102 nM.
